Patent US20140377340A1, “HLA-DR BINDING PEPTIDES AND THEIR USES” (priority 2007, published 2014)

Experiments:
purified HLA DRB1*1201 = target: T1, purified HLA DRB1*1201 (Homo sapiens, UniProt P01903+P01911, A100R/A169T/D57E/D86V/F55L/H45Y/K41T/L162R/M171V/P40S/Q125H/Q178H/Q39Y/Q99D/R42G/S66L/T262R/V114A/V67L/W38E/Y59H/Y61H/Y89S); assay: HLA-DR radioligand binding inhibition assay, DRB1*1201
T1 construct: purified from EBV transformed homozygous cell lines or single MHC allele transfected 721.221, C1R, or fibroblast lines; made in house
Summary of the method: (§1)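 HLA-DR-bound radioactivity was read by scintillation counting after LB3.1 antibody capture of HLA-DR/peptide complexes. Beforehand, 1-10 nM labeled peptide was incubated 2 days with 1 μM to 1 nM purified HLA-DR (room temperature or 37° C, pH 4-7, protease inhibitor cocktail) and competitor peptides at […], in 2-4 independent runs.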

purified HLA DRB3*0101 = target: T2, purified HLA DRB3*0101 (Homo sapiens, UniProt P01903+P79483); assay: HLA-DR radioligand binding inhibition assay, DRB3*0101; conditions: IC50 nM purified HLA DRB3 *0101, purified HLA DRB3*0101
T2 construct: purified from EBV transformed homozygous cell lines or single MHC allele transfected 721.221, C1R, or fibroblast lines; made in house
Summary of the method: as §1

purified HLA DRB1*0405 = target: T3, purified HLA DRB1*0405 (Homo sapiens, UniProt P01903+P01911, A100R/A169T/D86S/F76Y/I96L/K127E/L162R/M171V/N62H/P40V/Q125Y/R42H/S133A/S149N/S66Y/V115G/V209L/W38E); assay: HLA-DR radioligand binding inhibition assay, DRB1*0405; conditions: IC50 nM purified HLA DRB1 *0405, purified HLA DRB1*0405
T3 construct: purified from EBV transformed homozygous cell lines or single MHC allele transfected 721.221, C1R, or fibroblast lines; made in house
Summary of the method: (§2)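 Bound radioactivity is read after 3-hour capture of complexes in 0.05% NP40/PBS on antibody-coated plates. Binding reactions pair 1-10 nM labeled peptide with 1 μM to 1 nM HLA-DR for two days.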

purified HLA DRB1*0802 = target: T4, purified HLA DRB1*0802 (Homo sapiens, UniProt P01903+P01911, A100R/A103L/A169T/F76Y/H45Y/I96F/K41T/L162R/M171V/P40S/Q125H/Q178H/Q39Y/Q99D/R218S/R42G/S66Y/V115G/W38E); assay: HLA-DR radioligand binding inhibition assay, DRB1*0802; conditions: IC50 nM purified HLA DRB1 *0802, purified HLA DRB1*0802
T4 construct: purified from EBV transformed homozygous cell lines or single MHC allele transfected 721.221, C1R, or fibroblast lines; made in house
Method: (§3) Instead, wells of an opaque white 96-well Optiplate (Packard) are coated with 3 μg (100 μl@ 30 μg/ml) of HLA-specific antibody (Ab) that “capture” complexes of radiolabeled MHC and unlabeled peptide transferred from the molecular binding assay plate in 100 μl of 0.05% NP40/PBS. After a 3-hour incubation period, the supernatant is decanted and scintillation fluid (Microscint 20) added. Captured complexes are then measured on a microplate scintillation and luminescence counter (TopCount NXTTM; Packard).
HLA-DR purification. Fifteen distinct HLA-DR molecules were used in quantitative assays to measure the binding of peptides to solubilized HLA-DR molecules. […] Briefly, columns of inactivated Sepharose CL4B and Protein A Sepharose were used as pre-columns. HLA-DR molecules were captured by passage of lysates over LB3.1 monoclonal antibody (anti-HLA-DRA) columns. Antibody columns were washed with 10 mM Tris-HCL, pH8.0 with 1% (v/v) NP-40, followed by PBS containing 0.4% (w/v) n-octylglucoside. […] The pH was reduced to 8.0 and the eluates were concentrated by centrifugation in Centriprep 30 concentrators at 2000 rpm (Amicon, Beverly, Mass.).
Briefly, 1-10 nM of radiolabeled peptide was co-incubated for 2 days at either room temperature or 37° C. with 1 μM to 1 nM purified HLA-DR molecules in the presence of a cocktail of protease inhibitors. Assays were performed at various pH conditions, ranging from pH 4 to pH 7. […] After incubation, the percentage of HLA-DR-bound radioactivity is determined by capturing HLA-DR/peptide complexes on Optiplates (Packard Instruments, Meriden, Conn.) coated with the LB3.1 antibody and determining bound counts per minute using the TopCount microscintillation counter (Packard Instruments). […] Competitor peptides are tested in 2-4 complete, independent experiments, at concentrations ranging from […].

purified HLA DRB1*1501 = target: T5, purified HLA DRB1*1501 (Homo sapiens, UniProt P01903+P01911); assay: HLA-DR radioligand binding inhibition assay, DRB1*1501
T5 construct: purified from EBV transformed homozygous cell lines or single MHC allele transfected 721.221, C1R, or fibroblast lines; made in house
Summary of the method: as §2

purified HLA DRB1*0901 = target: T6, purified HLA DRB1*0901 (Homo sapiens, UniProt P01903+P01911, A100R/A103E/D57H/D86V/F55Y/F60I/F76Y/I96F/K127E/L162R/M171V/P40D/Q125H/Q99R/R33Q/R42F/S133A/S66N/T210M/V115G/W38K/Y107V/Y59G/Y89S); assay: HLA-DR radioligand binding inhibition assay, DRB1*0901; conditions: IC50 nM purified HLA DRB1 *0901, purified HLA DRB1*0901
T6 construct: purified from EBV transformed homozygous cell lines or single MHC allele transfected 721.221, C1R, or fibroblast lines; made in house
Method: as §3
HLA-DR purification. Fifteen distinct HLA-DR molecules were used in quantitative assays to measure the binding of peptides to solubilized HLA-DR molecules. […] Briefly, columns of inactivated Sepharose CL4B and Protein A Sepharose were used as pre-columns. HLA-DR molecules were captured by passage of lysates over LB3.1 monoclonal antibody (anti-HLA-DRA) columns. Antibody columns were washed with 10 mM Tris-HCL, pH8.0 with 1% (v/v) NP-40, followed by PBS containing 0.4% (w/v) n-octylglucoside.
Briefly, 1-10 nM of radiolabeled peptide was co-incubated for 2 days at either room temperature or 37° C. with 1 μM to 1 nM purified HLA-DR molecules in the presence of a cocktail of protease inhibitors. Assays were performed at various pH conditions, ranging from pH 4 to pH 7. […] After incubation, the percentage of HLA-DR-bound radioactivity is determined by capturing HLA-DR/peptide complexes on Optiplates (Packard Instruments, Meriden, Conn.) coated with the LB3.1 antibody and determining bound counts per minute using the TopCount microscintillation counter (Packard Instruments).

purified HLA DRB4*0101 = target: T7, purified HLA DRB4*0101 (Homo sapiens, UniProt P01903+P13762, G164S); assay: HLA-DR radioligand binding inhibition assay, DRB4*0101; conditions: IC50 nM purified HLA DRB4 *0101, purified HLA DRB4*0101
T7 construct: purified from EBV transformed homozygous cell lines or single MHC allele transfected 721.221, C1R, or fibroblast lines; made in house
Summary of the method: as §2

purified HLA DRB1*0404 = target: T8, purified HLA DRB1*0404 (Homo sapiens, UniProt P01903+P01911, A100R/A169T/F76Y/I96L/K127E/L162R/M171V/N62H/P40V/Q125Y/R42H/S133A/S149N/S66Y/V209L/W38E); assay: HLA-DR radioligand binding inhibition assay, DRB1*0404; conditions: IC50 nM purified HLA DRB1 *0404, purified HLA DRB1*0404
T8 construct: purified from EBV transformed homozygous cell lines or single MHC allele transfected 721.221, C1R, or fibroblast lines; made in house
Summary of the method: as §2

purified HLA DRB1*0701 = target: T9, purified HLA DRB1*0701 (Homo sapiens, UniProt P01903+P01911, A100R/A102G/A103Q/D57E/D86V/E43K/F76Y/K127E/L162R/M171V/P40G/Q125H/Q99D/R33Q/R42Y/R54Q/S133A/S66F/T210M/V115G/Y107V/Y59L/Y89S); assay: HLA-DR radioligand binding inhibition assay, DRB1*0701; conditions: IC50 nM purified HLA DRB1 *0701, purified HLA DRB1*0701
T9 construct: purified from EBV transformed homozygous cell lines or single MHC allele transfected 721.221, C1R, or fibroblast lines; made in house
Summary of the method: as §2

IC50 (purified HLA DRB1*1201): 19000 nM
IC50 (purified HLA DRB3*0101): > 20000 nM
IC50 (purified HLA DRB1*0405): 5120 nM
IC50 (purified HLA DRB1*0802): > 20000 nM
IC50 (purified HLA DRB1*1501): 690 nM
IC50 (purified HLA DRB1*0901): > 20000 nM
IC50 (purified HLA DRB4*0101): 444 nM
IC50 (purified HLA DRB1*0404): 493 nM
IC50 (purified HLA DRB1*0701): 271 nM
Structure (SMILES): CSCC[C@H](NC(=O)CNC(=O)[C@H](CC(C)C)NC(=O)CNC(=O)[C@H](Cc1ccc(O)cc1)NC(=O)[C@@H](N)CS)C(=O)N[C@@H](CCC(=O)O)C(=O)N[C@@H](Cc1c[nH]cn1)C(=O)N[C@@H](CC(C)C)C(=O)N[C@@H](CCCNC(=N)N)C(=O)N[C@@H](CCC(=O)O)C(=O)N[C@H](C(=O)N[C@@H](CCCNC(=N)N)C(=O)N[C@@H](C)C(=O)N[C@H](C(=O)O)C(C)C)C(C)C [Peptide 9019.0044]
